# Measured values published in patent publication US20060172953A1, “Treatment of benign prostatic hyperplasia using energolytic agents” (Threshold Pharmaceuticals Inc., priority 2003, published 2006).
# Legend:
# [1] = system: PC3 cells; experiment: Apoptosis (caspase 3 activation) in citrate-oxidizing PC3 cells; type: cell-based, human; conditions: LNCaP vs PC3 (citrate-oxidizing) cells
# Experimental: (§1) Immunoblotting: Immunoblotting was carried out as described in Example 2. […] Apoptosis assay: […] Lonidamine was added into each well at different concentrations, and then incubated for 6 h at 37° C. To assess the caspase 3 activity, the homogeneous buffer and caspase 3 substrate (Promega No G7791; Promega Corporation, 2800 Woods Hollow Road, Madison Wis. USA 53711) were added into each well in the presence or absence of caspase 3 inhibitor (Promega No G5961). The fluorescence intensity of cleaved substrate was determined using a fluorescence plate reader at excitation 485 nm and emission 530 nm.
# [2] = system: HIF-1α; experiment: HIF-1α expression in PC3 cells (immunoblot of nuclear and whole-cell extracts); type: cell-based, human; conditions: 4 hours, dose-dependent
# From the text: (§2) See Franklin et al.; 1995, Endocrine 3:603-607. […] 20108 USA. Methods: […]
# [3] = system: human prostate epithelial cells; experiment: Apoptosis assay in primary cultures of prostate epithelial cells; type: cell-based; conditions: primary cultures of prostate epithelial cells (accumulate citrate)
# Experimental: (§3) Primary Cell Cultures: Primary cultures of human prostate epithelial cells (Cambrex No CC-2555) and human prostate stromal cells (Cambrex No CC-2508) were obtained from Cambrex Bio Science Rockland, Inc. (191 Thomaston Street, Rockland, Me. 04841). Apoptosis assay: […] Lonidamine was added into each well at different concentrations, and then incubated for 6 h at 37° C. To assess the caspase 3 activity, the homogeneous buffer and caspase 3 substrate (Promega No G7791; Promega Corporation, 2800 Woods Hollow Road, Madison Wis. USA 53711) were added into each well in the presence or absence of caspase 3 inhibitor (Promega No G5961). The fluorescence intensity of cleaved substrate was determined using a fluorescence plate reader at excitation 485 nm and emission 530 nm.
# [4] = system: human prostate stromal cells; experiment: Apoptosis assay in primary cultures of prostate stromal cells; type: cell-based; conditions: primary cultures of prostate stromal cells (do not accumulate citrate)
# Experimental: as §3
# [5] = system: actin, caspase 3, NF-κB, IκBα; experiment: Protein levels of actin, caspase 3, NF-κB, IκBα (immunoblot, specificity control); type: cell-based, human; conditions: all concentrations tested except 800 μM
# Experimental: Methods: Cells were plated at a density of 5×10^5 cells into a dish, and then maintained in 37° C. incubator (5% CO2) for 2 days. Prior to the assay, cells were rinsed twice with pre-warmed (37° C.) RPMI-1640 Medium (ATCC No. 30-2001; 10 mM HEPES; 1 mM sodium pyruvate; 2 mM L-glutamine; 4500 mg glucose/L; 1500 mg sodium bicarbonate/L). Cells were incubated with 2 ml of culture medium in the absence or presence of lonidamine at different concentrations for 4 hours at 37° C. either under normoxia or hypoxia (oxygen level <0.1%). At the end of the incubation, the dish was placed on ice, and the cells were washed rapidly twice with cold PBS buffer (4° C.). […] The protein concentration was measured using a Bio-Rad protein assay. […] To detect the expression of caspase 3, NF-κB, P65 and IκBα, the membrane was blocked with TBST-containing 5% non-fat milk for 1 h at room temperature, and the proteins were detected by incubation with the corresponding antibodies overnight at 4° C. and with the alkaline phosphatase-conjugated secondary antibody for 1 h. The specific protein was detected using a colorimetric substrate, and the intensity of each protein was quantified using an NIH image system.
# [6] = system: HIF-1α; experiment: HIF-1α expression in LNCaP cells (immunoblot of nuclear and whole-cell extracts); type: cell-based, human; conditions: for reduction of HIF-1α expression/accumulation (nuclear fraction): citrate-producing cell cultured under hypoxia
# From the text: as §2
# [7] = system: LNCaP cells; experiment: Apoptosis (caspase 3 activation) in citrate-producing LNCaP cells; type: cell-based, human
# Experimental: as §1
smiles,measurement,setting,value
"O=C(O)c1nn(Cc2ccc(Cl)cc2Cl)c2ccccc12 [lonidamine, 1-(2,4-dichlorobenzyl)-1H-indazole-3-carboxylic acid]","activation of caspase 3, LNCaP compared with PC3",[1],to a much greater extent than in citrate-oxidizing cells (PC3)
same,level of HIF-1α protein in nuclear and whole-cell extracts,[2]; hypoxic conditions (oxygen <0.1%),reduced the level of HIF-1α protein
same,level of HIF-1α protein in nuclear and whole-cell extracts,[2]; normoxic conditions,reduced the level of HIF-1α protein
same,induction of apoptosis,[3],induced apoptosis only in prostate epithelial cells in a dose-dependent manner
same,induction of apoptosis,[4],induction of apoptosis was not observed
same,"inhibition of protein levels of actin, caspase 3, NF-κB, or IκBα",[5],no detectable inhibition
same,level of HIF-1α protein in nuclear and whole-cell extracts,"[6]; LNCaP cells, hypoxic conditions (oxygen <0.1%), 4 hours, dose-dependent",reduced the level of HIF-1α protein
same,reduction of HIF-1α expression/accumulation (nuclear fraction),[6]; 200 micromolar lonidamine,about 2 fold
same,reduction of HIF-1α expression/accumulation (nuclear fraction),[6]; higher lonidamine concentrations (above 200 micromolar),more than 5 fold
same,"effect on HIF-1α expression, LNCaP compared with PC3","[6]; hypoxic conditions (oxygen level <0.1%), LNCaP vs PC3",more pronounced in LNCaP cells than in PC3 cells
same,activation of caspase 3,[7]; LNCaP (citrate-producing) cells,induced activation of caspase 3
same,time course of caspase 3 activation,[7]; lonidamine-treated cells,time-dependent process
